Results published in US20260191982A1, “ANTI-BASAL CELL ADHESION MOLECULE ANTIBODY-DRUG CONJUGATE” (Genome & Company, Inc., priority 2022, published 2026).
Non-standard residues stand in square brackets, D forms with d. Residues, ends and D or L forms follow the SMILES beside them. Groups on a side chain read outwards from the residue. *: point of attachment. DM1Mal(CH2)2CO = COc1cc2cc(c1Cl)N(C)C(=O)C[C@H](OC(=O)[C@H](C)N(C)C(=O)CCSC1CC(=O)N(CCC(=O)*)C1=O)[C@]1(C)O[C@H]1[C@H](C)[C@@H]1C[C@@](O)(NC(=O)O1)[C@H](OC)/C=C/C=C(\C)C2; X2 = CC(=O)N[C@@H](CSC1CC(=O)N(CCC(=O)*)C1=O)C(=O)O; Dolaproine = CO[C@@H]([C@@H]1CCCN1)[C@@H](C)C(=O)O; Dil = CC[C@H](C)[C@H](NC)[C@@H](CC(=O)O)OC; NMe2Val = CC(C)[C@@H](C(=O)*)N(C)C; PEG5 = NCCOCCOCCOCCOCCOCCC(=O)O; Cit = NC(=O)NCCC[C@H](N)C(=O)O; PEG4 = NCCOCCOCCOCCOCCC(=O)O

Target: T1, Cathepsin B (Homo sapiens, UniProt P07858)
T1 construct: purchased R&D Systems, Bio-Techne AG 953-CY-010
Assay: Cat B-induced cleavage, in vitro enzymatic cleavage assay with UHPLC-MS/MS
Type: biochemical
Settings: for half-life at 10 μM: human, recombinant human Cathepsin B (activated), 10 μM test compound, Cathepsin B 2 μg/mL, MES buffer pH 5.0, 37° C., read-out: T1/2 Compound; for Ratio (T1/2 Compound/T1/2 Reference): versus Cys-MC-Val-Cit-PABC-MMAF
Protocol: Cat B-induced cleavage of the antibody-drug conjugates can be evaluated according to the in vitro enzymatic cleavage assay using recombinant human Cathepsin B (commercially acquired from R&D Systems, Bio-Techne AG, cat #. 953-CY-010 in the form of a precursor) and UHPLC-MS/MS analysis.
Briefly, the enzyme is reconstituted in 25 mM 2-(N-morpholino) ethanesulfonic acid (MES) buffer adjusted at pH 5.0 with a 1M NaOH solution and then activated with a […] solution of Dithiothreitol (DDT) at room temperature for at least 15 min. The in vitro enzymatic assay is conducted at 37° C. with the test compound at a concentration of 10 μM (when the test compound is a linker according to the present invention wherein the maleimide group has been quenched in the presence of acetyl-cysteine (Ac-Cys-OH)) or 2.5 μM (when the test compound is an antibody-drug conjugate) in the presence of activated recombinant human Cathepsin B enzyme at 2 μg/mL in a 25 mM MES buffer pH 5.0. The enzymatic cleavage reaction is stopped for each defined time point by mixing a 1/10 ratio volume of acetonitrile+0.1% formic acid (FA) containing an internal standard (warfarine at 0.5 μM). Analysis is conducted using a Waters Acquity UPLC System coupled to a Waters Xevo TQ triple quad mass spectrometer. UHPLC is conducted with a HSS T3 1.8 μm 50×2.1 mm column (Waters) heated at 45° C. and fitted with 2 μm insert filter pre-column (Waters), and solvent systems A1 (H2O+0.1% FA) and B1 (acetonitrile+0.1% FA) at a flow rate of 0.6 mL/min and a 5-95% gradient of B1 over 2.0 min. MS/MS is performed using electrospray ionization (ESI) interface in positive mode and specific MRM transitions for each compound.
The propensity of compounds 1-13 to be cleaved by Cathepsin B was evaluated according to an in vitro enzymatic cleavage assay using recombinant human Cathepsin B and UHPLC-MS/MS analysis as described in Section 2.3.5 above.

Row | SMILES | half-life at 10 μM [min] | Ratio (T1/2 Compound/T1/2 Reference) | Cat B-induced drug release, times faster than reference (compared to Cys-MC-Val-Cit-PABC-MMAF) [times]
1 | COc1cc2cc(c1Cl)N(C)C(=O)C[C@H](OC(=O)[C@H](C)N(C)C(=O)CCSC1CC(=O)N(CC3CCC(C(=O)N[C@@H](CCCNC(N)=O)C(=O)N[C@@H](CCCCNC(=O)CCOCCOCCOCCOCCOCCNC(=O)CN4C(=O)CC(SC[C@H](NC(C)=O)C(=O)O)C4=O)C(=O)N[C@@H](Cc4ccc(O)cc4)C(=O)O)CC3)C1=O)[C@]1(C)O[C@H]1[C@H](C)[C@@H]1C[C@@](O)(NC(=O)O1)[C@H](OC)/C=C/C=C(\C)C2 (stereo partly drawn) [compound 12, DM1-Mcc-Cit-Lys(PEG5-Mal-Cys-Ac)-Tyr-OH] | < 1 | 0.00004 | –
2 | CC[C@H](C)[C@@H]([C@@H](CC(=O)N1CCC[C@H]1[C@H](OC)[C@@H](C)C(=O)N[C@@H](Cc1ccccc1)C(=O)N[C@@H](CCCNC(=N)N)C(=O)N[C@@H](Cc1ccccc1)C(=O)N[C@@H](CCCCNC(=O)CCOCCOCCOCCOCCNC(=O)CCN1C(=O)CC(SC[C@H](NC(C)=O)C(=O)O)C1=O)C(=O)O)OC)N(C)C(=O)[C@@H](NC(=O)[C@H](C(C)C)N(C)C)C(C)C (stereo partly drawn) [compound 3, AF-Arg-Phe-Lys(PEG4-Mal-Cys-Ac)-OH] (NMe2Val-V[Dil][Dolaproine]FRFK([PEG4-X2])-OH) | – | 0.11 | –
3 | COc1cc2cc(c1Cl)N(C)C(=O)C[C@H](OC(=O)[C@H](C)N(C)C(=O)CCSC1CC(=O)N(CCC(=O)N[C@@H](Cc3ccccc3)C(=O)N[C@@H](CCCNC(N)=O)C(=O)N[C@@H](Cc3ccccc3)C(=O)N[C@@H](CCCCNC(=O)CCOCCOCCOCCOCCNC(=O)CCN3C(=O)CC(SC[C@H](NC(C)=O)C(=O)O)C3=O)C(=O)O)C1=O)[C@]1(C)O[C@H]1[C@H](C)[C@@H]1C[C@@](O)(NC(=O)O1)[C@H](OC)/C=C/C=C(\C)C2 (stereo partly drawn) [compound 7, DM1-Mal-Phe-Cit-Phe-Lys(PEG4-Mal-Cys-Ac)-OH] ({DM1Mal(CH2)2CO}-F[Cit]FK([PEG4-X2])-OH) | – | 0.09 | –
4 | COc1cc2cc(c1Cl)N(C)C(=O)C[C@H](OC(=O)[C@H](C)N(C)C(=O)CCSC1CC(=O)N(CC3CCC(C(=O)N[C@@H](Cc4ccccc4)C(=O)N[C@@H](CCCNC(N)=O)C(=O)N[C@@H](CCCCNC(=O)CCOCCOCCOCCOCCOCCNC(=O)CN4C(=O)CC(SC[C@H](NC(C)=O)C(=O)O)C4=O)C(=O)N[C@@H](Cc4ccc(O)cc4)C(=O)O)CC3)C1=O)[C@]1(C)O[C@H]1[C@H](C)[C@@H]1C[C@@](O)(NC(=O)O1)[C@H](OC)/C=C/C=C(\C)C2 (stereo partly drawn) [compound 11, DM1-Mcc-Phe-Cit-Lys(PEG5-Mal-Cys-Ac)-Tyr-OH] | < 1 | 0.005 | –
5 | COc1cc2cc(c1Cl)N(C)C(=O)C[C@H](OC(=O)[C@H](C)N(C)C(=O)CCSC1CC(=O)N(CCC(=O)N[C@@H](Cc3ccccc3)C(=O)N[C@@H](CCCNC(N)=O)C(=O)N[C@@H](CCCCNC(=O)CCOCCOCCOCCOCCNC(=O)CCN3C(=O)CC(SC[C@H](NC(C)=O)C(=O)O)C3=O)C(=O)N[C@@H](Cc3ccccc3)C(=O)O)C1=O)[C@]1(C)O[C@H]1[C@H](C)[C@@H]1C[C@@](O)(NC(=O)O1)[C@H](OC)/C=C/C=C(\C)C2 (stereo partly drawn) [compound 6, DM1-Mal-Phe-Cit-Lys(PEG4-Mal-Cys-Ac)-Phe-OH] ({DM1Mal(CH2)2CO}-F[Cit]K([PEG4-X2])F-OH) | – | 0.02 | –
6 | CC[C@H](C)[C@@H]([C@@H](CC(=O)N1CCC[C@H]1[C@H](OC)[C@@H](C)C(=O)N[C@@H](Cc1ccccc1)C(=O)N[C@@H](CCCNC(=N)N)C(=O)N[C@@H](CCCCNC(=O)CCOCCOCCOCCOCCOCCNC(=O)CCN1C(=O)CC(SC[C@H](NC(C)=O)C(=O)O)C1=O)C(=O)N[C@@H](Cc1ccccc1)C(=O)O)OC)N(C)C(=O)[C@@H](NC(=O)[C@H](C(C)C)N(C)C)C(C)C (stereo partly drawn) [compound 1, AF-Arg-Lys(PEG4-Mal-Cys-Ac)-Phe-OH] (NMe2Val-V[Dil][Dolaproine]FRK([PEG5-X2])F-OH) | – | 0.12 | –
7 | COc1cc2cc(c1Cl)N(C)C(=O)C[C@H](OC(=O)[C@H](C)N(C)C(=O)CCSC1CC(=O)N(CCC(=O)N[C@@H](Cc3ccccc3)C(=O)N[C@@H](CCCCN)C(=O)N[C@@H](CCCCNC(=O)CCOCCOCCOCCOCCNC(=O)CCN3C(=O)CC(SC[C@H](NC(C)=O)C(=O)O)C3=O)C(=O)N[C@@H](Cc3ccccc3)C(=O)O)C1=O)[C@]1(C)O[C@H]1[C@H](C)[C@@H]1C[C@@](O)(NC(=O)O1)[C@H](OC)/C=C/C=C(\C)C2 (stereo partly drawn) [compound 5, DM1-Mal-Phe-Lys-Lys(PEG4-Mal-Cys-Ac)-Phe-OH] ({DM1Mal(CH2)2CO}-FKK([PEG4-X2])F-OH) | – | 0.05 | 20
8 | CC[C@H](C)[C@@H]([C@@H](CC(=O)N1CCC[C@H]1[C@H](OC)[C@@H](C)C(=O)N[C@@H](Cc1ccccc1)C(=O)N[C@@H](CCCNC(N)=O)C(=O)N[C@@H](CCCCNC(=O)CCOCCOCCOCCOCCNC(=O)CCN1C(=O)CC(SC[C@H](NC(C)=O)C(=O)O)C1=O)C(=O)N[C@@H](Cc1ccccc1)C(=O)O)OC)N(C)C(=O)[C@@H](NC(=O)[C@H](C(C)C)N(C)C)C(C)C (stereo partly drawn) [compound 8, AF-Cit-Lys(PEG4-Mal-Cys-Ac)-Phe-OH] (NMe2Val-V[Dil][Dolaproine]F[Cit]K([PEG4-X2])F-OH) | – | 0.09 | –
